“And” between values parts separate entries of the source, which are not always exact repeats. Equal values may be shown once. “Also recorded” adds a separate entry of the source.
Legend:
Type in all cases: in vivo, mouse
NZM mice [1] = assay: Survival in NZM lupus model
Procedure: Six week old lupus-prone, female, MRL/lpr (Jackson Labs, #000485) and non-lupus prone control MRL/MpJ (Jackson Labs, #000486) mice were obtained from Jackson Laboratories (Bar Harbor, Me.) at 6-weeks of age. Spontaneous SLE-prone NZBWF1/J (NZM) (catalog no. 100008) female mice and non-lupus prone (within time from of experiment) NZW/LacJ (catalog no. 001058) female mice were obtained from Jackson Laboratories (Bar Harbor, Me.) at 15-weeks of age. All mice were maintained on a […] light/dark cycle, with food and water available ad libitum. All experimental animal procedures were approved by and in accordance to the regulations of the Institutional Animal Care and Use Committee (IACUC) of Cephalon, Inc; approved IACUC protocol #03-040 and #03-03-041.
The NZM strain acts as a mouse model of genetically-driven, progressive, systemic lupus erythematosus (SLE). The evolution of the disease in NZM mice is characterized by an abnormal polyclonal B cell activation with a high production of various autoantibodies, including those directed against DNA and other nuclear antigens, and against cytoskeleton proteins. Elevated circulating immune complexes can lead to fatal glomerulonephritis in older mice.
(§1) Age mated, female, NZM or NZW/LacJ, mice were matured for the study of lupus nephritis for a total of 7 months or 210 days at which time urine was collected for proteinuria detection. Mice with 0.5-1.0 mg/ml of urine protein as determined by an optical density-based total protein precipitation assay and cross-checked for 30-300 mg/dl of protein as determined by a stick assay were considered proteinuria positive and selected for study entry. Groups were normalized to contain a Gaussian distribution of proteinuria positive animals (i.e., ⅓ low proteinuria, ⅓ medium, ⅓ high) then randomized between groups before ear marking and taking baseline measures including urine and serum collections. A total of five mice from the total population were randomly selected for baseline kidney histology evaluation. Treatments and tests for each group are as described in FIG. 12. Briefly, with a minimum of 10 mice per group, COMPOUND A was administered at 100 mg/kg or 55 mg/kg, both twice a day and orally. […] Vehicle included 3% DMSO, 10% Solutol and 87% PBS. […] End-stage lupus nephritis was evaluated by histopathology and scored by a board certified pathologist for the assessment of total renal damage in diseased animals using the scoring method described by Smith et al (Smith, Dong et al. 2007). […] Day-98 or “end of treatment/study” represents 310 days of age for the NZM animals.

NZM mice [2] = assay: Urinalysis total urine protein (proteinuria) in NZM mice
Procedure: Urine samples were acid precipitated for total protein recovery and analysis. Samples for which enough urine remained were used for Uristix® leukouria analysis (MRL/lpr study only). Briefly, a standard protein solution was prepared from normal mouse sera and was used as a standard for mouse urinary protein assay by turbidity. Standard preparation was as follows: 0, 5, 10, 15, 20, 30, 40, and 50 μL of a 4 mg/mL mouse sera standard protein solution as provided in the kit were added in duplicate into two columns. PBS was added to individual wells to adjust the final volume to 50 μL. For urine sample preparation, urine samples were centrifuged at 9880×g for 3 minutes using a tabletop micro-centrifuge. Urine supernatant (1-50 μL) was added in duplicate. PBS was added to adjust the volume to 50 μL total. For the turbidity assay: 25 μL of 0.1 N HCl was added into blank columns and 250 μL of 3% sulfosalicyclic acid into the test columns. The microplate was incubated for 10 minutes at RT and plates were read using an ELISA reader with single beam at 450 nm. For the Uristix® strip assay, strips were laid out and labeled. Twenty microliters of urine were placed onto each test strip square and incubated for at least 30 seconds before the result was recorded. For all total urine analysis plate-based assays, values below the limit of detection set by the lowest point along the standard or set by the manufacturer were considered out of range and were not estimated, but assumed the lowest point along the standard curve for that particular assay.
as §1

NZM mice [3] = assay: Renal histopathology kidney IC-GN scoring in NZM mice
Procedure: For histological analyses, the left kidney and lung (NZM model only) from each animal was removed and fixed in 10% buffered neutral 10% formalin (EMD) for 48 hours on an orbital rocker at 25° C., then washed overnight with running dH2O and stored in 70% ethanol at 4° C. until ready to be processed. Kidney stains used for histological analyses included hematoxylin and eosin (H&E), Periodic Acid Schiff (PAS) and Trichrome stains (Wistar Institute, Philadelphia, Pa.). All 3 stained sections were used by the pathologist for scoring purposes. All histological scoring was performed blinded and by an independent board certified veterinary medical pathologist (Julie Engiles, VMD, DACVP; University of Pennsylvania). Multiple stains were used to determine score values. Images in FIGS. 8, 19 and 20 show worst affected area of section selected blindly by the pathologist.
Kidney IC-GN Scoring Method (Smith, Dong et al. 2007):
1. […]
2. […]
3. […]
4. […]
5. […]
6. […]
7. […]
Also considered effacement of the glomerular tuft by PAS positive, Trichrome negative material necrosis. • Glomerular sclerosis was defined by increased fibroplasia or fibrosis within the glomerular tuft or capsule. […] Pharmacodynamic (PD) Analysis
as §1

[4] = NZM group mean, CTX 50 mpk 1 × wk
[5] = NZM mice, CTX 50 mg/kg once weekly ip
[6] = NZM individual mouse, CTX 50 mpk 1 × wk
[7] = NZM kidney score (grade 0-5), mean, CTX 50 mg/kg

## O=P1(N(CCCl)CCCl)NCCCO1 (centres unmarked) [CTX, cyclophosphamide, reference compound]
NZM mice [1]; [4]
  Age (d), MEAN: 284.9 days
NZM mice [1]; NZM individual mouse (survival; EOS = 310 days of age), CTX 50 mpk 1 × wk
  Age: 227 d and 310 d (7×) and 212 d and 240 d
NZM mice [1]; [5]
  survival at EOS: 70%
NZM mice [2]; [4]
  I: Proteinuria, MEAN: 2.8 mg/mL
NZM mice [2]; [6]
  I: Proteinuria: 11.09 mg/mL and 0.86 mg/mL and 1.44 mg/mL and 0.76 mg/mL and 1.30 mg/mL and 0.71 mg/mL and 8.84 mg/mL and 0.96 mg/mL and 0.58 mg/mL and 1.50 mg/mL
NZM mice [2]; [5]
  total urine protein decrease compared to vehicle: 67.1%
NZM mice [3]; [6]
  B: Glomerular Cellularity: ++ (‘++’ moderate (3)); also recorded: + (‘+’ mild (2)); also recorded: − (‘−’ no disease (1))
  C: Glomerular Necrosis: ++ (‘++’ moderate (3)) (2×) and − (‘−’ no disease (1)) (3×) and + (‘+’ mild (2)) (3×) and _
  D: Glomerular Sclerosis: +++ (‘+++’ high (4)); also recorded: − (‘−’ no disease (1)); also recorded: ++ (‘++’ moderate (3)); also recorded: + (‘+’ mild (2))
  E: Interstitial Infiltration: + (‘+’ mild (2)) (2×) and − (‘−’ no disease (1)) (5×) and +++ (‘+++’ high (4)) and _
  F: Tubular Atrophy: ++++ (‘++++’ severe disease (5)); also recorded: − (‘−’ no disease (1)); also recorded: + (‘+’ mild (2)); also recorded: ++ (‘++’ moderate (3))
  G: Interstitial Fibrosis: +++ (‘+++’ high (4)); also recorded: − (‘−’ no disease (1)); also recorded: + (‘+’ mild (2))
  H: Vasculitis: + (‘+’ mild (2)); also recorded: − (‘−’ no disease (1))
NZM mice [3]; [7]
  Glomerular Cellularity: 2.0
  Glomerular Necrosis: 1.77
  Glomerulosclerosis: 2.11
  Interstitial Fibrosis: 1.55
  Interstitial Infiltration: 1.55
  Tubular Atrophy: 2.00
  Vasculitis: 1.33

Source: patent publication US9023853B2, “Janus kinase 2 (JAK2) inhibitor for the treatment of lupus” (Cephalon, Inc., priority 2010, dated 2015)
